# Measurements taken from patent US8034822B2, “Glucokinase activators” (Takeda San Diego, Inc., priority 2006, dated 2011).
# Biological target: T1, glucokinase (GK) (Homo sapiens, UniProt P35557)
# T1 construct: I.D. No. 1 corresponds to residues 12-465 of glucokinase; made in house; host or cells: E. coli DH10b-T1r, pFLAG-CTC plasmid
# T1 sequence (P35557 with tags, fused parts or gaps isoform P35557-2): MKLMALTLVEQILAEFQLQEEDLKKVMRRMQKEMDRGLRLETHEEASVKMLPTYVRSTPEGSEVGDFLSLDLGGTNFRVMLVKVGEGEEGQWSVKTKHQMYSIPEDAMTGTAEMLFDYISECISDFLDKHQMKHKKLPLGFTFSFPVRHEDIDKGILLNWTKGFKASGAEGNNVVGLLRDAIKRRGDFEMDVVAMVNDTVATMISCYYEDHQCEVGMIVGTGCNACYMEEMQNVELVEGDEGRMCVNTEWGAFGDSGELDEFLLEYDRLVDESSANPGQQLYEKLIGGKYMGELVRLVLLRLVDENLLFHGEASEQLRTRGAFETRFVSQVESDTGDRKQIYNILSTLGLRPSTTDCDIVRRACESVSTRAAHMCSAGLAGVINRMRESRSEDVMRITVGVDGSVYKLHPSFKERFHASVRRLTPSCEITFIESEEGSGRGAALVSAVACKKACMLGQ
# Experiment: enzymatic glucokinase activity assay (ATP consumption, KinaseGlo luminescence)
# Format: biochemical
# Settings: Against GK; Kact = concentration giving 50% of maximal increase in GK activity; 5 μM ATP, 5 mM Glucose, 60 min room temperature; values given as bins; read-out: pKact
# Description: The activity of compounds as glucokinase activators may be assayed in vitro, in vivo or in a cell line. Provided below is an enzymatic glucokinase activity assay.
# Purified glucokinase may be obtained as follows. DNA encoding residues 12-465 of the full-length sequence of the human enzyme may be amplified by PCR and cloned into the HindIII and EcoRI sites of pFLAG-CTC (Sigma). SEQ. I.D. No. 1 corresponds to residues 12-465 of glucokinase.
# The expression of recombinant glucokinase protein may be carried out by transformation and growth of DH10b-T1r E. coli cells incorporating the (pFLAG-CTC) plasmid in LB media. Protein expression can be induced in this system by the addition of IPTG to the culture medium.
# Recombinant protein may be isolated from cellular extracts by passage over Sepharose Q Fast Flow resin (Pharmacia). This partially purified GK extract may then be further purified by a second passage over Poros HQ10 (Applied Biosystems). The purity of GK may be determined on denaturing SDS-PAGE gel. Purified GK may then be concentrated to a final concentration of 20.0 mg/ml. After flash freezing in liquid nitrogen, the proteins can be stored at −78° C. in a buffer containing 25 mM TRIS-HCl pH 7.6, 50 mM NaCl, and 0.5 mM TCEP.
# The activation properties of compounds for GK may be determined using a black 384-well-plate format under the following reaction conditions: 25 mM Hepes pH 7.2, 25 mM NaCl, 10 mM MgCl2, 0.01% Brij35, 1 mM DTT, 5 μM ATP, 5 mM Glucose 2% DMSO. The amount of ATP consumed may be determined quantitatively by addition of equal volume of luciferase reagent (luciferase+beetle luciferin—KinaseGlo Luminescent Kinase Assay kit from Promega). The luminescence intensity may be measured by using the Analyst HT from LJL Biosystems.
# The assay reaction may be initiated as follows: 4 μl of substrate mixture (12.5 μM ATP and 12.5 mM Glucose) was added to each well of the plate, followed by the addition of 2 μl of activator (2 fold serial dilutions for 11 data points for each activator) containing 10% DMSO. 4 μL of 1.25 nM GK solution may be added to initiate the reaction. The reaction mixture may then be incubated at room temperature for 60 min, and quenched and developed by addition of 10 μL of luciferase reagent. Luminescence intensities of the resulting reaction mixtures may be measured after a 10 min incubation at room temperature. The luminescence intensity may be measured by using the Analyst HT from LJL Biosystems.
# pKact and % ACTmax values may be calculated by non-linear curve fitting of the compound concentrations and luminescence intensities to a standard inhibition/activation equation.
row,SMILES,EC50
1,"O=C(Nc1ccc(F)cn1)C(CC1CCCCC1)n1cnc2ccc(F)cc2c1=O (stereo not shown) [Compound 159, 3-cyclohexyl-2-(6-fluoro-4-oxoquinazolin-3(4H)-yl)-N-(5-fluoropyridin-2-yl)propanamide]",≥ 2000 nM
2,"CS(=O)(=O)c1cc(Cl)c2ncn(C(CC3CCCCC3)C(=O)Nc3ccc(C(N)=O)cn3)c(=O)c2c1 (stereo not shown) [Compound 92, 6-[2-(8-Chloro-6-methanesulfonyl-4-oxo-4H-quinazolin-3-yl)-3-cyclohexyl-propionylamino]-nicotinamide]",501 to 794 nM
3,"O=C(Nc1ccccn1)C(CC1CCCCC1)n1cnc2ccc(F)cc2c1=O (stereo not shown) [Compound 36, 3-cyclohexyl-2-(6-fluoro-4-oxoquinazolin-3(4H)-yl)-N-(pyridin-2-yl)propanamide]",≥ 2000 nM
4,"O=C(NC1CCCC1)c1ccc2c(=O)n(C(CC3CCCCC3)C(=O)Nc3ncc(Cl)s3)cnc2c1 (stereo not shown) [Compound 173, 3-(1-(5-chlorothiazol-2-ylamino)-3-cyclohexyl-1-oxopropan-2-yl)-N-cyclopentyl-4-oxo-3,4-dihydroquinazoline-7-carboxamide]",501 to 794 nM
5,"CS(=O)(=O)c1ccc2c(=O)n(C(CC3CCCCC3)C(=O)Nc3ccc(C#N)cn3)cnc2c1 (stereo not shown) [Compound 166, N-(5-cyanopyridin-2-yl)-3-cyclohexyl-2-(7-(methylsulfonyl)-4-oxoquinazolin-3(4H)-yl)propanamide]",≥ 2000 nM
6,"CN(C)CCNC(=O)c1ccc2c(=O)n(C(CC3CCCCC3)C(=O)Nc3ncc(Cl)s3)c(=O)[nH]c2c1 (stereo not shown) [Compound 177, 3-(1-(5-chlorothiazol-2-ylamino)-3-cyclohexyl-1-oxopropan-2-yl)-N-(2-(dimethylamino)ethyl)-2,4-dioxo-1,2,3,4-tetrahydroquinazoline-7-carboxamide]",501 to 794 nM
7,"O=C(Nc1ncc(Cl)s1)C(CC1CCCCC1)n1cnc2ccc(Cl)cc2c1=O (stereo not shown) [Compound 47, 2-(6-Chloro-4-oxo-4H-quinazolin-3-yl)-N-(5-chloro-thiazol-2-yl)-3-cyclohexyl-propionamide]",1000 to 1580 nM
8,"CCS(=O)(=O)c1ccc2c(=O)n(C(CC3CCCCC3)C(=O)Nc3ccc(C(N)=O)cn3)cnc2c1 (stereo not shown) [Compound 81, 6-[3-Cyclohexyl-2-(7-ethanesulfonyl-4-oxo-4H-quinazolin-3-yl)-propionylamino]-nicotinamide]",≤ 398 nM
9,"CS(=O)(=O)c1ccc2c(=O)n(C(CC3CCCCC3)C(=O)Nc3ccc(F)cn3)cnc2c1 (stereo not shown) [Compound 70, 3-Cyclohexyl-N-(5-fluoro-pyridin-2-yl)-2-(7-methanesulfonyl-4-oxo-4H-quinazolin-3-yl)-propionamide]",≥ 2000 nM
10,"COC(=O)c1ccc(NC(=O)C(CC2CCCCC2)n2cnc3cc(S(=O)(=O)CC4CC4)ccc3c2=O)nc1 (stereo not shown) [Compound 90, 6-[3-Cyclohexyl-2-(7-cyclopropylmethanesulfonyl-4-oxo-4H-quinazolin-3-yl)-propionylamino]-nicotinic acid methyl ester]",501 to 794 nM
11,"O=C(Nc1ncc(Cl)s1)C(CC1CCCCC1)n1c(=O)[nH]c2ccc(F)cc2c1=O (stereo not shown) [Compound 38, N-(5-chlorothiazol-2-yl)-3-cyclohexyl-2-(6-fluoro-2,4-dioxo-1,2-dihydroquinazolin-3(4H)-yl)propanamide]",≥ 2000 nM
12,"O=C(NC1CC1)c1ccc2c(=O)n(C(CC3CCCCC3)C(=O)Nc3ccc(F)cn3)cnc2c1 (stereo not shown) [Compound 118, 3-(3-Cyclohexyl-1-(5-fluoropyridin-2-ylamino)-1-oxopropan-2-yl)-N-cyclopropyl-4-oxo-3,4-dihydroquinazoline-7-carboxamide]",501 to 794 nM
13,"COC(=O)c1ccc(NC(=O)[C@H](CC2CCCCC2)n2cnc3ccc(F)cc3c2=O)nc1 [Compound 203, (S)-methyl 6-(3-cyclohexyl-2-(6-fluoro-4-oxoquinazolin-3(4H)-yl)propanamido)nicotinate]",1000 to 1580 nM
14,"O=C(NC1CC1)c1ccc2c(=O)n(C(CC3CCCCC3)C(=O)Nc3ncc(Cl)s3)c(=O)[nH]c2c1 (stereo not shown) [Compound 172, 3-(1-(5-chlorothiazol-2-ylamino)-3-cyclohexyl-1-oxopropan-2-yl)-N-cyclopropyl-2,4-dioxo-1,2,3,4-tetrahydroquinazoline-7-carboxamide]",501 to 794 nM
15,"CCS(=O)(=O)c1ccc2c(=O)n(C(CC3CCCCC3)C(=O)Nc3ccc(Cl)cn3)cnc2c1 (stereo not shown) [Compound 72, N-(5-Chloro-pyridin-2-yl)-3-cyclohexyl-2-(7-ethanesulfonyl-4-oxo-4H-quinazolin-3-yl)-propionamide]",501 to 794 nM
16,"CS(=O)(=O)c1ccc2c(=O)n(C(CC3CCCCC3)C(=O)Nc3ccc(C(=O)O)cn3)c(=O)[nH]c2c1 (stereo not shown) [Compound 64, 6-[3-Cyclohexyl-2-(7-methanesulfonyl-2,4-dioxo-1,4-dihydro-2H-quinazolin-3-yl)-propionylamino]-nicotinic acid]",≥ 2000 nM
17,"COc1ccc2ncn(C(CC3CCCCC3)C(=O)Nc3ccc(Cl)cn3)c(=O)c2c1 (stereo not shown) [Compound 168, N-(5-chloropyridin-2-yl)-3-cyclohexyl-2-(6-methoxy-4-oxoquinazolin-3(4H)-yl)propanamide]",501 to 794 nM
18,"O=C(Nc1nc2ccccc2s1)C(CC1CCCCC1)n1cnc2ccc(F)cc2c1=O (stereo not shown) [Compound 35, N-(benzo[d]thiazol-2-yl)-3-cyclohexyl-2-(6-fluoro-4-oxoquinazolin-3(4H)-yl)propanamide]",501 to 794 nM
19,"CN(C)CCNC(=O)c1ccc2c(=O)n(C(CC3CCCCC3)C(=O)Nc3ncc(Cl)s3)cnc2c1 (stereo not shown) [Compound 176, 3-(1-(5-chlorothiazol-2-ylamino)-3-cyclohexyl-1-oxopropan-2-yl)-N-(2-(dimethylamino)ethyl)-4-oxo-3,4-dihydroquinazoline-7-carboxamide]",1000 to 1580 nM
20,"COC(=O)c1ccc(NC(=O)C(CC2CCCCC2)n2cnc3c(C(F)(F)F)cccc3c2=O)nc1 (stereo not shown) [Compound 209, methyl 6-(3-cyclohexyl-2-(4-oxo-8-(trifluoromethyl)quinazolin-3(4H)-yl)propanamido)nicotinate]",1000 to 1580 nM
21,"O=C(NC1CC1)c1ccc2c(=O)n(C(CC3CCCCC3)C(=O)Nc3ccc(Cl)cn3)cnc2c1 (stereo not shown) [Compound 171, 3-(1-(5-chloropyridin-2-ylamino)-3-cyclohexyl-1-oxopropan-2-yl)-N-cyclopropyl-4-oxo-3,4-dihydroquinazoline-7-carboxamide]",≤ 398 nM
22,"COC(=O)c1ccc(NC(=O)C(CC2CCCCC2)n2cnc3cc(S(=O)(=O)C4CCCC4)ccc3c2=O)nc1 (stereo not shown) [Compound 83, 6-[3-Cyclohexyl-2-(7-cyclopentanesulfonyl-4-oxo-4H-quinazolin-3-yl)-propionylamino]-nicotinic acid methyl ester]",≤ 398 nM
23,"COC(=O)c1ccc(NC(=O)C(CC2CCCCC2)n2cnc3ccc(F)cc3c2=O)nc1 (stereo not shown) [Compound 193, methyl 6-(3-cyclohexyl-2-(6-fluoro-4-oxoquinazolin-3(4H)-yl)propanamido)nicotinate]",≥ 2000 nM
24,"CC(C)S(=O)(=O)c1ccc2ncn(C(CC3CCCCC3)C(=O)Nc3ccc(Cl)cn3)c(=O)c2c1 (stereo not shown) [Compound 84, N-(5-Chloro-pyridin-2-yl)-3-cyclohexyl-2-[4-oxo-6-(propane-2-sulfonyl)-4H-quinazolin-3-yl]-propionamide]",501 to 794 nM
25,"O=C(Nc1ncc(Cl)s1)C(CC1CCCCC1)n1cnc2ccc(F)cc2c1=O (stereo not shown) [Compound 50, N-(5-Chloro-thiazol-2-yl)-3-cyclohexyl-2-(6-fluoro-4-oxo-4H-quinazolin-3-yl)-propionamide]",≥ 2000 nM
